# In US8735622B2, “Histone demethylase inhibitors and methods for using the same” (The Regents of the University of Colorado, a body corporate, priority 2011, dated 2014):
# “Also recorded” adds a separate entry of the source.
# How the values were obtained:
# [1] = tested on: histone methylation marks in MCF7 cells; assay: Western blotting of histone methylation marks in MCF7 cells; format: cell-based, human; conditions: MCF7 cells, 5, 10, 15 μM, 48 hours
# JMJD2A = target: T1, JMJD2A (Homo sapiens, UniProt O75164); assay: JMJD2A enzyme activity assay (DELFIA); format: biochemical; conditions: in vitro
# T1 construct: Recombinant protein preparation of GASC1(1-420), JMJD2A (1-420) and LSD1 (full-length); made in house; host or cells: Escherichia coli BL-21
# T1 sequence (O75164 1-420): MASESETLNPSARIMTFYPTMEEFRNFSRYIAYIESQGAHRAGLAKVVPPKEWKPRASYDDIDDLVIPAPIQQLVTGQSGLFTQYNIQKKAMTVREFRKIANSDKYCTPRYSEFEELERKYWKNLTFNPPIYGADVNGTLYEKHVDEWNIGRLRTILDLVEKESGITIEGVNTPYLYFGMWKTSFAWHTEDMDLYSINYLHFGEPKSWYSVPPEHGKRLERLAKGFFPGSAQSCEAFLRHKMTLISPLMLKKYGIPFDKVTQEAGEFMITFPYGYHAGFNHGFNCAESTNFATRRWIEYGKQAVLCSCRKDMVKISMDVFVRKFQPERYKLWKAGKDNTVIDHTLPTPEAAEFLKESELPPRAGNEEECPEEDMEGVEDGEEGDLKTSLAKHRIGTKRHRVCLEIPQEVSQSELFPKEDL
# Method: In order to evaluate the inhibitory activity of 1 in vitro, a GST-fusion protein of the catalytic N-terminus of human GASC1 (gene amplified in squamous cell carcinoma 1) corresponding to amino acid 1-420 was cloned and purified. […] To evaluate the enzyme specificity of 1, the activity of 1 was examined against several other related enzymes in vitro.
# The enzyme activity assays for GASC1 and JMJD2A were established on the DELFIA platform. DELFIA assays were performed in white, opaque 384-well plates coated with Streptavidin (Perkin Elmer). GST-GASC1(1-420) was diluted to 200 ng/well in 20 mM Tris HCl pH 8.5/2 mM glutathione and added in a volume of 20 μL. Blank wells received Tris/glutathione buffer only. Test compounds were diluted in DMSO and […] was pinned into the wells. Blank and control wells received only compound buffer. The reactions were initiated by the addition of 500 nM biotin-H3(1-20)K9me3 substrate, 10 μM FeSO4, 100 μM alpha-ketoglutarate in a volume of 20 μL, and incubated at room temperature for 60 minutes. The plates were washed 3 times with 100 μL of Wash Buffer (50 mM Tris pH 7.4, 150 mM NaCl, 0.05% Tween 20, 0.2% BSA). […] Time resolved fluorescence was measured after 45 minutes on an Envision Microplate Imager (Perkin Elmer Life Sciences) with 400 μs delay, excitation at 360 nm, and emission at 620 nm.
# KYSE150 cells = assay: Cell viability / growth inhibition assay (CellTiter-Glo); format: cell-based, human; conditions: 48 hours
# Text: To examine the cellular activity of the compounds of the invention, oesophageal carcinoma cell line KYSE150 was used in a growth inhibition assay because KYSE150 cells have been reported to contain several copies of the GASC1 gene, and it has been reported that inhibition of GASC1 expression using short hairpin RNA causes a significant reduction of proliferation in KYSE150 cells. […] Without being bound by any theory, it is believed that this low activity in cells was possibly due to the poor cellular uptake of the zwitterion form in which it typically exists under physiological conditions. Therefore, its methyl ester prodrug 2 (FIG. 1a), called methylstat was tested.
# To screen and validate the cellular toxicity of compounds, a cell viability assay was carried out using CellTiter-Glo luminescent cell viability assay kit (Promega, Madison USA). KYSE150 cells were seeded on blank-walled 384-well plates with KYSE medium at densities of 1,000 cells/well. The medium volume for each well was 40 μL. Cells were incubated at 37° C. in 5% CO2/95% air for 24 hours. The medium was removed from each well and replaced with 38 μL, of warmed fresh medium and 2 μL, compound solution in 2% DMSO/98% H2O. The compounds were added into medium at different concentrations with the final concentration of DMSO as 0.1%. After incubation at 37° C. with 5% CO2/95% air for another 48 hours, the plates were equilibrated to room temperature for 30 minutes. 40 μL, of CellTiter-Glo reagent (Promega, Madison USA) was added to each well and mixed for 2 minutes on an orbital shaker. The plate was incubated at room temperature for another 10 minutes to stabilize luminescent signal. The luminescence of each sample was measured in a plate-reading illuminometer (Beckman Coulter DTX 880) with parameters of 1-minute lag time and 0.1 second/well read time. The experiments were performed in triplicate and repeated on two separately initiated cultures.
# [2] = tested on: prolyl hydroxylases (PHDs); assay: Cellular HIF-1α level (prolyl hydroxylase specificity) in MCF7 cells; format: cell-based, human; conditions: 24 hours, methylstat up to 15 μM, DFO 150 μM, DMOG 1 and 2 mM
# Text: To assess the specificity of methylstat in vivo, another iron(II)- and α-ketoglutarate-dependent dioxygenases, prolyl hydroxylases (PHDs), was examined. PHDs have been reported to regulate normoxic inactivation of hypoxia-inducible factors (HIFs) by hydroxylating specific prolyl residues of HIFs. […] DMOG and DFO have been used to mimic hypoxia conditions by inhibiting PHDs in vivo. […] Similar results were also observed in HeLa cells (see FIG. 7).
# (§1) Total lysates of cells were generated from the cells lysed in CelLytic M Cell Lysis (Sigma) with protease inhibitor cocktail (Sigma), mixed with 2×LSB buffer (100 mM Tris-HCl pH 6.8, 200 mM DTT, 4% SDS, 20% glycerol and 0.2% bromophenol blue) and boiled for 5 min before SDS-PAGE. BCA assay (Thermo) was applied for protein qualification.
# [3] = tested on: histone methylation marks in KYSE150 cells; assay: Western blotting of histone methylation marks in KYSE150 cells; format: cell-based, human; conditions: KYSE150 cells, 5, 10, 15 μM, 48 hours
# Method: Next, the cellular effects of methylstat were evaluated on a variety of histone methylation marks in KYSE150 cells. DMOG and DFO were used as positive controls, since they are known cell-active inhibitors of iron (II)- and α-ketoglutarate-dependent dioxygenases.
# as §1
# Histone extraction was generated from the cells lysed in Triton Extraction Buffer (TEB: PBS containing 0.5% Triton X 100 (v/v), 2 mM phenylmethylsulfonyl fluoride (PMSF), 0.02% (w/v) NaN3) at the density of 10^7 cells/mL. 0.2 N HCl was used to extract histone over night at 4° C.
smiles,measurement,setting,value
COC(=O)/C=C/C(=O)N(O)CCCCNCc1ccc(COC(=O)Nc2cccc3ccccc23)cc1 [methylstat],hypermethylation of histone proteins (Western blot),[1],induced concentration-dependent hypermethylation of lysine and arginine residues; also recorded: induced hypermethylations of histone proteins in a concentration-dependent manner
same,inhibition of enzymatic activity of JMJD2A,JMJD2A,did not significantly inhibit
same,KYSE150 cell growth inhibition,KYSE150 cells; compound 1 at up to 100 μM,inhibits KYSE150 cell growth
same,GI50,"KYSE150 cells; Homo sapiens, KYSE-150, KYSE150 cells, read-out: half maximal growth inhibitory concentration (GI50)",~5.1 µM
same,cellular HIF-1α levels / prolyl hydroxylase inhibition,[2],did not affect the cellular HIF-1α levels; also recorded: did not significantly inhibit prolyl hydroxylases
same,hypermethylation of histone proteins (Western blot),[3],induced hypermethylation of lysine residues; also recorded: induced hypermethylations of histone proteins in a concentration-dependent manner
